Assay results published in publication PMC3633653 (Molecular microbiology, 2013).

Molecular target: T1, EI^Ntr (Escherichia coli, UniProt P37177)
T1 sequence (P37177 1-748): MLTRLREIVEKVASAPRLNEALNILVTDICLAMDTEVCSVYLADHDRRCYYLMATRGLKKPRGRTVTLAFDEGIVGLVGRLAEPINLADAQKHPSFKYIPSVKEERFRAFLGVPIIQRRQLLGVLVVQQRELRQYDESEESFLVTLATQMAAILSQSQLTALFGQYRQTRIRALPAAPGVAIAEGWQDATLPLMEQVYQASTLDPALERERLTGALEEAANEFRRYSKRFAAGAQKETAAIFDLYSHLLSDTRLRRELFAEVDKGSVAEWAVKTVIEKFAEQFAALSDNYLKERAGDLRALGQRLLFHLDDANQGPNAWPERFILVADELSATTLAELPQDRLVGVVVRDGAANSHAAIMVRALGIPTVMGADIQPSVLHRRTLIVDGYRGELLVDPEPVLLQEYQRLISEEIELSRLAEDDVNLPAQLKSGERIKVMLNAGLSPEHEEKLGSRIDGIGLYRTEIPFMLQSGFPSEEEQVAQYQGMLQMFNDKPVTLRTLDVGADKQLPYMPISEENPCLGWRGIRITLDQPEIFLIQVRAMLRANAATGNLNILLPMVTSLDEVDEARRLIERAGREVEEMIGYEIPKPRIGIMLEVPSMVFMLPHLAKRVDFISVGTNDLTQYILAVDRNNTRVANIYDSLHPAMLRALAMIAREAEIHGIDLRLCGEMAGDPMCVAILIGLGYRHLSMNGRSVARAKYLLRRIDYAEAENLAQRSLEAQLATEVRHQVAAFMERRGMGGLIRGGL
Assay: intrinsic tryptophan fluorescence quenching
Type: binding

| Compound | Kd [µM] |
| --- | --- |
| NC(=O)CC[C@H](N)C(=O)O [glutamine] | 700 |
| O=C(O)CCC(=O)C(=O)O [α-ketoglutarate] | 3300 |
